Test results from US7323447B2, “Hepatitis C virus inhibitors” (Bristol-Myers Squibb Company, priority 2005, dated 2008).

Assays:
[1] = target: T1, HCV NS3/4A protease complex (H77 strain) (Hepatitis C virus genotype 1a, UniProt P27958, C1454S/C1711G); assay: FRET peptide assay to monitor HCV NS3/4A proteolytic activity, H77 strain; format: biochemical
T1 construct: DNA encoding the recombinant HCV NS3/4A protease complex (amino acids 1027 to 1711) for these strains; inferred from pET21b vector and Ni-NTA purification; made in house; host or cells: Escherichia coli BL21 (DE3), pET21b
Description: HCV NS3 protease complexes, derived from the BMS strain, H77 strain or J4L6S strain, were generated, as described below. These purified recombinant proteins were generated for use in a homogeneous assay (see below) to provide an indication of how effective compounds of the present disclosure would be in inhibiting HCV NS3 proteolytic activity.
The H77 and J4L6S strains were used for production of recombinant NS3/4A protease complexes. DNA encoding the recombinant HCV NS3/4A protease complex (amino acids 1027 to 1711) for these strains was manipulated as described by P. Gallinari et al. (see Gallinari P, Paolini C, Brennan D, Nardi C, Steinkuhler C, De Francesco R. Biochemistry. 38(17):5620-32, (1999)). Briefly, a three-lysine solubilizing tail was added at the 3′-end of the NS4A coding region. The cysteine in the P1 position of the NS4A-NS4B cleavage site (amino acid 1711) was changed to a glycine to avoid the proteolytic cleavage of the lysine tag. Furthermore, a cysteine to serine mutation was introduced by PCR at amino acid position 1454 to prevent the autolytic cleavage in the NS3 helicase domain. […]

[2] = target: T2, human pancreatic chymotrypsin (Homo sapiens, UniProt P17538); assay: Specificity assay, chymotrypsin; format: biochemical; conditions: read-out: Chymotrypsin activity in the specificity assays (IC50)
T2 construct: purchased Sigma or EMDbiosciences
Protocol: The specificities of compounds of the present disclosure were determined against a variety of serine proteases: human neutrophil elastase (HNE), porcine pancreatic elastase (PPE) and human pancreatic chymotrypsin and one cysteine protease: human liver cathepsin B. In all cases, a 96-well plate format protocol using colorimetric p-nitroaniline (pNA) substrate or fluorometric Amino-Methyl-Coumarin (AMC) substrate, specific for each enzyme was used as described previously (PCT Patent Application No. WO 00/09543) with some modifications. All enzymes were purchased from Sigma or EMDbiosciences while the substrates were from Bachem.
Each pNA assay included a 2 hours enzyme-inhibitor pre-incubation at room temperature followed by addition of substrate and hydrolysis to ˜15% conversion as measured on a Spectramax Pro microplate reader. The cathepsin B assay was initiated by adding substrate to a 10 min enzyme-inhibitor pre-incubation at room temperature, and the assay plate measured immediately using the Cytofluor Series 4000. Compound concentrations varied from 100 to 0.4 μM depending on their potency. […]
The percentage of inhibition was calculated using the formula: [1−((UVinh−UVblank)/(UVctl−UVblank))]×100 […]

T1 sequence (P27958 1027-1711 C1454S/C1711G, one chain of several): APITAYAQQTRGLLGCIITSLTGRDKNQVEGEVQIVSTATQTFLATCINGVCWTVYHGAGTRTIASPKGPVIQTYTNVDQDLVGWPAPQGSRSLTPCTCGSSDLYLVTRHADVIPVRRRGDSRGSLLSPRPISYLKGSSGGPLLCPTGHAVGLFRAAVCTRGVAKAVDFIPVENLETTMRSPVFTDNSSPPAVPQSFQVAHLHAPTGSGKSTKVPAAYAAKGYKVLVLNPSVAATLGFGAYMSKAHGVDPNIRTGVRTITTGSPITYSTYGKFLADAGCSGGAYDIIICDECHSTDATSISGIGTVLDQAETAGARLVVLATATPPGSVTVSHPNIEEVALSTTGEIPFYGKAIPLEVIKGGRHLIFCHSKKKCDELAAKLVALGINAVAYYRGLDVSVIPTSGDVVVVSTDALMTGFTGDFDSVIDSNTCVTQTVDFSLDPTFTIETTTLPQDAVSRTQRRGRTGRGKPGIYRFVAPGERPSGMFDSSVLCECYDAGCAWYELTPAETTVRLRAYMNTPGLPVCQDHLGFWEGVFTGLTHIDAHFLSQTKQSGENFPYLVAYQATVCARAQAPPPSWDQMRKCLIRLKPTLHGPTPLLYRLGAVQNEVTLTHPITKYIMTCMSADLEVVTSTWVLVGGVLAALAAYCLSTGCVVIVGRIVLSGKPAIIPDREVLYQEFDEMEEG
T2 sequence (P17538 19-263): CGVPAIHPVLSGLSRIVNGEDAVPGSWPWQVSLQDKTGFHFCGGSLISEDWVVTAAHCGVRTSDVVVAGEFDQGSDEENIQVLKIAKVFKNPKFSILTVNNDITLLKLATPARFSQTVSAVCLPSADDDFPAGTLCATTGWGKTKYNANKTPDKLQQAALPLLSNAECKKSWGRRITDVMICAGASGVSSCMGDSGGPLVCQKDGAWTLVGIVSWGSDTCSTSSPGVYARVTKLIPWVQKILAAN

C=C[C@@H]1C[C@]1(NC(=O)[C@@H]1C[C@@H](OC(=O)N2Cc3cccc(F)c3C2)CN1C(=O)[C@@H](OC(=O)NC(C)(C)C)C(C)(C)C)C(=O)NS(=O)(=O)C1CC1 [Example 56Compound 56]
IC50 [1]: 17 nM
IC50 [2]: > 100000 nM
